From patent US20070128217A1 (priority 2003, published 2007)

Key:
[1] = test system: antibodies in sera from SARS patients (sera 1a, 1b, 2, 6, 37, 62, London, SARS-yellow, SARS-green); format: binding, human; design: Binding of serum 6 to linear peptides of protein X1 of SARS-CoV Urbani / Binding of serum 37 to linear peptides of protein X1 of SARS-CoV Urbani / Binding of serum 6 to looped/cyclic peptide (PEPSCAN-ELISA) / Binding of serum 37 to looped/cyclic peptide (PEPSCAN-ELISA) / Binding of serum 37 to looped/cyclic peptides of protein X1 of SARS-CoV Urbani / Binding of serum 6 to linear peptides of protein X2 / Binding of serum 37 to linear peptides of protein X2 / Binding of serum 37 to looped/cyclic peptides of protein X2 of SARS-CoV Urbani / Binding of serum 6 to linear peptides of protein M of SARS-CoV Urbani / Binding of serum 37 to linear peptides of protein M of SARS-CoV Urbani / Binding of serum 6 to looped/cyclic peptides of protein M of SARS-CoV Urbani / Binding of serum 37 to looped/cyclic peptides of protein M of SARS-CoV Urbani / Binding of serum 6 to linear peptides of protein X3 of SARS-CoV Urbani / Binding of serum 37 to linear peptides of protein X3 of SARS-CoV Urbani / Binding of serum 37 to looped/cyclic peptides of protein X3 of SARS-CoV Urbani / Binding of serum 6 to linear peptides of protein X4 of SARS-CoV Urbani / Binding of serum 37 to linear peptides of protein X4 of SARS-CoV Urbani / Binding of serum 37 to looped/cyclic peptides of protein X4 of SARS-CoV Urbani / Binding of serum 6 to linear peptides of protein X5 of SARS-CoV Urbani / Binding of serum 37 to linear peptides of protein X5 of SARS-CoV Urbani / Binding of serum 37 to looped/cyclic peptides of protein X5 of SARS-CoV Urbani / Binding of serum 6 to linear peptides of protein N of SARS-CoV Urbani / Binding of serum 37 to linear peptides of protein N of SARS-CoV Urbani / Binding of serum 6 to linear peptide (PEPSCAN-ELISA) / Binding of serum 1a to looped/cyclic peptides of protein N of SARS-CoV Urbani / Binding of serum 1b to looped/cyclic peptides of protein N of SARS-CoV Urbani / Binding of serum 2 to looped/cyclic peptides of protein N of SARS-CoV Urbani / Binding of serum 6 to looped/cyclic peptides of protein N of SARS-CoV Urbani / Binding of serum 37 to looped/cyclic peptides of protein N of SARS-CoV Urbani / Binding of serum 62 to looped/cyclic peptides of protein N of SARS-CoV Urbani / Binding of serum London to looped/cyclic peptides of protein N of SARS-CoV Urbani / Binding of serum SARS-green to looped/cyclic peptides of protein N of SARS-CoV Urbani: unit not given here
[2] = test system: control sera (pooled serum of ten healthy LUMC hospital workers; commercial negative donor pooled serum from the Dutch bloodbank); format: binding, human; design: Binding of Control serum LUMC to linear peptides / Binding of Control serum Blood-bank to linear peptides / Binding of Control serum LUMC to looped peptides / Binding of Control Serum Blood-Bank to Looped peptides / Binding of Control serum LUMC to linear peptides of the protein M of SARS-CoV Urbani / Binding of Control serum Blood-bank to linear peptides of the protein M of SARS-CoV Urbani / Binding of Control serum LUMC to looped peptides of the protein M of SARS-CoV Urbani / Binding of Control Serum Blood-Bank to Looped peptides of the protein M of SARS-CoV Urbani: unit not given here
[3] = test system: rabbit serum obtained by immunizing a rabbit with the SARS-CoV strain Frankfurt 1; format: binding; design: Binding of a rabbit serum to linear peptides / Binding of a rabbit serum to looped peptides / Rabbit serum linear peptides / Rabbit serum looped peptides / Binding of a rabbit serum to linear peptides of protein N of SARS-CoV Urbani (Rabbit serum linear peptides) / Binding of a rabbit serum to looped/cyclic peptides of protein N of SARS-CoV Urbani (Rabbit serum looped peptides): unit not given here

| Sequence | Binding of serum 1a to linear peptides of protein X1 of SARS-CoV Urbani [1] | Binding of serum 1a to looped/cyclic peptides of protein X1 of SARS-CoV Urbani [1] | Binding of serum 1b to linear peptides of protein X1 of SARS-CoV Urbani [1] | Binding of serum 1b to looped/cyclic peptides of protein X1 of SARS-CoV Urbani [1] | Binding of serum 2 to linear peptides of protein X1 of SARS-CoV Urbani [1] | Binding of serum 2 to looped/cyclic peptides of protein X1 of SARS-CoV Urbani [1] | Binding of serum 6 to linear peptides of protein X1 of SARS-CoV Urbani [1] | Binding of serum 6 to looped/cyclic peptides of protein X1 of SARS-CoV Urbani [1] | Binding of serum 37 to linear peptides of protein X1 of SARS-CoV Urbani [1] | Binding of serum 37 to looped/cyclic peptides of protein X1 of SARS-CoV Urbani [1] | Binding of serum 62 to linear peptides of protein X1 of SARS-CoV Urbani [1] | Binding of serum 62 to looped/cyclic peptides of protein X1 of SARS-CoV Urbani [1] | Binding of serum London to linear peptides of protein X1 of SARS-CoV Urbani [1] | Binding of serum London to looped/cyclic peptides of protein X1 of SARS-CoV Urbani [1] | Binding of serum SARS-green to linear peptides of protein X1 of SARS-CoV Urbani [1] | Binding of serum SARS-green to looped/cyclic peptides of protein X1 of SARS-CoV Urbani [1] | Binding of Control Serum Blood-Bank to Looped peptides [2] | Binding of Control serum Blood-bank to linear peptides [2] | Binding of Control serum LUMC to linear peptides [2] | Binding of Control serum LUMC to looped peptides [2] | also measured |
| --- | --- | --- | --- | --- | --- | --- | --- | --- | --- | --- | --- | --- | --- | --- | --- | --- | --- | --- | --- | --- | --- |
| NATFFIFNKLVKDPP | 0.6 | 0.5 | 0.5 | 0.3 | 0.4 | 0.3 | 0.4 | 0.4 | 0.5 | 0.4 | 0.4 | 0.4 | 0.2 | 0.2 | 0.2 | 0.2 | 0.3 | 0.4 | 0.4 | 0.4 | Binding of serum SARS-yellow to linear peptides of protein X1 of SARS-CoV Urbani [1]: 0.2; Binding of serum SARS-yellow to looped/cyclic peptides of protein X1 of SARS-CoV Urbani [1]: 0.0; Binding of a rabbit serum to linear peptides [3]: 0.1; Binding of a rabbit serum to looped peptides [3]: 0.3 |
| FTEVYYQLESTQITT | 0.8 | 0.5 | 0.7 | 0.5 | 0.5 | 0.4 | 0.5 | 0.4 | 0.7 | 0.7 | 0.7 | 0.5 | 0.3 | 0.2 | 0.5 | 0.3 | 0.6 | 0.6 | 0.5 | 0.6 | Binding of serum SARS-yellow to linear peptides of protein X1 of SARS-CoV Urbani [1]: 0.5; Binding of serum SARS-yellow to looped/cyclic peptides of protein X1 of SARS-CoV Urbani [1]: 0.4; Binding of a rabbit serum to linear peptides [3]: 0.1; Binding of a rabbit serum to looped peptides [3]: 0.5 |
| GTRHTYQLRARSVSP | – | – | – | – | – | – | – | – | – | – | – | – | – | – | – | – | 0.7 | 0.8 | 0.6 | 0.8 | Binding of serum 1a to linear peptides of protein X4 of SARS-CoV Urbani [1]: 0.7; Binding of serum 1a to looped/cyclic peptides of protein X4 of SARS-CoV Urbani [1]: 0.8; Binding of serum 1b to linear peptides of protein X4 of SARS-CoV Urbani [1]: 0.6; Binding of serum 1b to looped/cyclic peptides of protein X4 of SARS-CoV Urbani [1]: 0.5; Binding of serum 2 to linear peptides of protein X4 of SARS-CoV Urbani [1]: 0.8; Binding of serum 2 to looped/cyclic peptides of protein X4 of SARS-CoV Urbani [1]: 1.0; Binding of serum 6 to linear peptides of protein X4 of SARS-CoV Urbani [1]: 0.6; Binding of serum 6 to looped/cyclic peptides of protein X4 of SARS-CoV Urbani [1]: 0.6; Binding of serum 37 to linear peptides of protein X4 of SARS-CoV Urbani [1]: 0.8; Binding of serum 37 to looped/cyclic peptides of protein X4 of SARS-CoV Urbani [1]: 0.7; Binding of serum 62 to linear peptides of protein X4 of SARS-CoV Urbani [1]: 0.8; Binding of serum 62 to looped/cyclic peptides of protein X4 of SARS-CoV Urbani [1]: 0.8; Binding of serum London to linear peptides of protein X4 of SARS-CoV Urbani [1]: 0.8; Binding of serum London to looped/cyclic peptides of protein X4 of SARS-CoV Urbani [1]: 0.3; Binding of serum SARS-green to linear peptides of protein X4 of SARS-CoV Urbani [1]: 0.6; Binding of serum SARS-green to looped/cyclic peptides of protein X4 of SARS-CoV Urbani [1]: 0.5; Binding of serum SARS-yellow to linear peptides of protein X4 of SARS-CoV Urbani [1]: 0.8; Binding of serum SARS-yellow to looped/cyclic peptides of protein X4 of SARS-CoV Urbani [1]: 0.7; Recognition of the peptide by the rabbit serum [3]: recognized |
